Assay results as given in PubChem BioAssay (NCI).
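Method: 48-hour compound exposure of cells in 96-well plates, five concentrations, linear interpolation of endpoints. The concentration for full growth arrest is given as TGI.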

What was measured:
Experiment in all cases: NCI anticancer screen, dose series, 48 h
786-0 renal = system: 786-0 renal
A498 renal = system: A498 renal
A549 NSCLC = system: A549 NSCLC
ACHN renal = system: ACHN renal
CAKI-1 renal = system: CAKI-1 renal
CCRF-CEM leukemia = system: CCRF-CEM leukemia
COLO 205 colon = system: COLO 205 colon
DLD-1 colon = system: DLD-1 colon
DMS 273 small cell lung = system: DMS 273 small cell lung
EKVX NSCLC = system: EKVX NSCLC
HCC-2998 colon = system: HCC-2998 colon
HCT-116 colon = system: HCT-116 colon
HCT-15 colon = system: HCT-15 colon
HL-60(TB) leukemia = system: HL-60(TB) leukemia
HOP-18 NSCLC = system: HOP-18 NSCLC
HOP-62 NSCLC = system: HOP-62 NSCLC
HOP-92 NSCLC = system: HOP-92 NSCLC
HT29 colon = system: HT29 colon
IGROV1 ovarian = system: IGROV1 ovarian
KM12 colon = system: KM12 colon
KM20L2 colon = system: KM20L2 colon
LOX IMVI melanoma = system: LOX IMVI melanoma
LXFL 529 NSCLC = system: LXFL 529 NSCLC
M14 melanoma = system: M14 melanoma
M19-MEL melanoma = system: M19-MEL melanoma
MALME-3M melanoma = system: MALME-3M melanoma
MOLT-4 leukemia = system: MOLT-4 leukemia
NCI-H226 lung = system: NCI-H226 lung
NCI-H460 lung = system: NCI-H460 lung
NCI-H522 lung = system: NCI-H522 lung
OVCAR-3 ovarian = system: OVCAR-3 ovarian
OVCAR-4 ovarian = system: OVCAR-4 ovarian
OVCAR-5 ovarian = system: OVCAR-5 ovarian
OVCAR-8 ovarian = system: OVCAR-8 ovarian
RPMI-8226 leukemia = system: RPMI-8226 leukemia
RXF 393 renal = system: RXF 393 renal
RXF-631 renal = system: RXF-631 renal
SF-268 CNS = system: SF-268 CNS
SF-295 CNS = system: SF-295 CNS
SF-539 CNS = system: SF-539 CNS
SK-MEL-28 melanoma = system: SK-MEL-28 melanoma
SK-MEL-5 melanoma = system: SK-MEL-5 melanoma
SK-OV-3 ovarian = system: SK-OV-3 ovarian
SN12C renal = system: SN12C renal
SNB-19 CNS = system: SNB-19 CNS
SNB-75 CNS = system: SNB-75 CNS
SNB-78 CNS = system: SNB-78 CNS
SR leukemia = system: SR leukemia
SW-620 colon = system: SW-620 colon
TK-10 renal = system: TK-10 renal
U251 CNS = system: U251 CNS
UACC-257 melanoma = system: UACC-257 melanoma
UACC-62 melanoma = system: UACC-62 melanoma
UO-31 renal = system: UO-31 renal
K-562 leukemia = system: K-562 leukemia
NCI-H23 lung = system: NCI-H23 lung
SK-MEL-2 melanoma = system: SK-MEL-2 melanoma
DMS 114 small cell lung = system: DMS 114 small cell lung

Measured: TGI

Cc1cc(C(C)C)cc(O)c(=O)c1
not listed: K-562 leukemia | NCI-H23 lung | SK-MEL-2 melanoma | DMS 114 small cell lung
> 100 µM: all other assays above

CN/N=C(\C)c1c(O)cc(C)oc1=O
not listed: COLO 205 colon | DMS 273 small cell lung | IGROV1 ovarian | OVCAR-3 ovarian | OVCAR-5 ovarian | RPMI-8226 leukemia | RXF 393 renal | SK-MEL-5 melanoma | SNB-78 CNS | DMS 114 small cell lung
> 100 µM: all other assays above

COc1nc(NC2OCC(OC(C)=O)C(OC(C)=O)C2OC(C)=O)c(-c2csc(N)n2)c(=O)n1C (stereo unspecified)
not listed: DMS 273 small cell lung | EKVX NSCLC | HCC-2998 colon | RXF 393 renal
> 100 µM: all other assays above
